Data reported in patent US8729053B2, “Nuclear factor kappa B pathway inhibitor composition and use of same” (The United States of America, as represented by the …, priority 2008, dated 2014).
Counter-ions that a name gives are not always drawn.

Legend:
AP-1 = AP-1 luciferase reporter assay in HEK293 cells; type: cell-based
Experimental: All expression plasmids were transiently transfected into HEK293 cells in a 96-well plate (0.1 μg/well) by using Effectene transfection reagent (Qiagen, Valencia, Calif.) according to the manufacturer's manual. HEK293 cells were maintained in Dulbecco's modified Eagle medium (Sigma, St. Louis, Mo.) supplemented with 10% fetal bovine serum (Atlanta Biologicals, Lawrenceville, Ga.) and incubated at 37° C. in a 5% CO2 incubator. After 24 hrs incubation, the medium was changed to DMEM with 0.2% FBS, and the transfectants were exposed to various concentrations of compound I and TPA (10 ng/ml). Cells were lysed with passive lysis buffer and the luciferase assay was performed using the Firefly-Luciferase reporter assay system (Promega, Madison, Wis.) and MLX Luminometer (Dynex Technology, Chantilly, Va.).
Three different luciferase reporter genes, AP-1 reporter containing four times TRE consensus originated from GCN4 and SRE reporter purchased from Stratagene (La Jolla, Calif.) respectively are as described previously (Suzukawa et al., Environ. Health Perspect., 2002, 110, 865-70). NFκB reporter is driven by five times NFκB responsive element inserted into Cis-reporter backbone (Stratagene, La Jolla, Calif.). Others include mouse COX-2 promoter region from −203 to +70 relative to the transcription site inserted into pTIS10L vector (Kim and Fischer, J. Biol. Chem., 1998, 273, 27686-94), human uPAR promoter region from −141 to +47 relative to transcription start site in pGL3 vector (Wang et al., Eur. J. Biochem., 2000, 267, 3248-54), and human VEGF promoter sequence from −2274 to +379 inserted into the pGL2 vector (Ding et al., J. Biol. Chem., 2006, 281, 9093-100). […]

HEK293T cells = assay: XTT assay in HEK293T cells; type: cell-based
Experimental: To evaluate whether the compound I biological activity can imitate TAM67 specificity, three different transcriptional promoter reporters were used, AP-1, NFκB, and SRE (Serum response element) in luciferase reporter assays (FIG. 1A: The transfected cells were pre-treated with varied concentrations of compound I or DMSO for 1 hour before 18 hours stimulation by TPA (10 ng/ml) or DMSO as vehicle. An asterisk (*) indicates a separate experiment with NFκB dependent luciferase only. Assays were performed with two independent experiments each in quadruplicate.). All three activities were induced by TPA but only induction of AP-I and NFκB were inhibited by TAM67. The SRE reporter was used as a specificity control and indicator of cell proliferation. TPA-induced SRE activity was not repressed by TAM67 when coexpressed with the SRE-Luc reporter in HEK293 cells. The same concentration (10 ng/ml, 16.2 nM) and incubation time (18 hrs) were used for TPA induction as previously used for the high throughput screen (HTS) (Ruocco et al., J. Biomol. Screen., 2007, 12, 133-9) along with 1 h pretreatment of compound I. The screening results had tested concentrations as high as 40 μM compound I with cell numbers showing 95.5+/−6.2% of DMSO control (ave+/− sd, n=3) by the XTT assay in HEK293T cells.

IL-6 mRNA = assay: Quantitative RT-PCR of endogenous IL-6 mRNA in HEK293 cells; type: cell-based, human; details: concentrations as low as 2.1 μM, 1 hour pretreatment, TPA 18 hours, normalized by GAPDH
Experimental: Total RNA was isolated from HEK293 cells after pretreatment with varying compound I and/or TPA stimulation by ToTALLY RNA kit (Ambion, Austin, Tex.), and first-strand cDNA was synthesized from 1 μg of the isolated total RNA using the SuperScript III First-Strand Synthesis System (Invitrogen, Carlsbad, Calif.) with random hexamers, oligonucleotide primers. cDNA was purified by QIAquick PCR purification kit (Qiagen, Valencia, Calif.) according to the manufacturer's manual. Real-time PCR was performed with iQ SYBR Green Supermix (Bio-Rad, Hercules, Calif.) by iQ5 Multicolor RT-PCR detection system (Bio-Rad, Hercules, Calif.). Primers for endogenous human IL-6 were designed by Primer 3 program (http://frodo.wi.mit.edu/). Human glyceraldehyde-3-phosphate dehydrogenase (hGAPDH) was used as a control. The sequences for RT-PCR are as follows:
Inhibition of NFκB transactivation would be expected to result in suppressed expression of genes whose transcription depends on NFκB. Quantitative RT-PCR was used to measure endogenous levels of IL-6 mRNA, transcribed from a gene whose transcription depends on NFκB but not AP-1. […] Plasmids expressing luciferase reporters were driven by promoters for COX-2, uPAR (urokinase-type plasminogen activator receptor), or VEGF. […]

[1] = test system: NCI-60 panel of human cancer cell lines; assay: NCI-60 cancer screen, growth inhibition; type: cell-based
From the text: Thus in addition to inhibiting tumorigenesis (transformation) and tumor progression (invasion), compound I may have potential for tumor growth inhibition in some cancer sites.

cell proliferation = assay: Cell proliferation; type: cell-based

In the case of `Cc1cc(N)ccc1N=Nc1ccc(S(=O)(=O)CCOS(=O)(=O)O)cc1` [compound I, 2-(4-((4-amino-2-methylphenyl)diazenyl)phenylsulfonyl)ethyl hydrogen sulfate], the IC50 (AP-1; HEK293, 1 h pretreatment, TPA 10 ng/ml 18 hrs, read-out: IC50 for inhibition of TPA induced AP-1) is reported as 17 µM, the “AP-1 luciferase activity, % of the activity with TPA alone” value (AP-1; compound at 17.0 μM, HEK293, TPA 10 ng/ml 18 hrs) is reported as 50% and the “Cell numbers, % of DMSO control (ave+/− sd, n=3)” value (HEK293T cells; 40 μM, XTT assay, HEK293T) is reported as 95.5+/−6.2%. For the same molecule, the “Cytotoxic or cytostatic activity” value (HEK293T cells; HEK293 cells) was “neither cytotoxic nor cytostatic activity”, the “Part of TPA induction of IL-6 mRNA prevented” value (IL-6 mRNA) was “more than half” and the inhibition at 1 µM ([1]; Homo sapiens, compound at 1 μM, read-out: Growth inhibition of leukemia lines) was greater than 50%. The “Killing of leukemia lines” value ([1]; concentrations up to 100 μM) was “does not kill”, the “Sensitivity of leukemia and breast cancer cell lines versus lines from other cancer sites” value ([1]; growth inhibition) was “more sensitive” and the “Concentration at which most of the NCI-60 lines showed growth inhibition” value ([1]; most of the NCI-60 human cancer cell lines) was “greater than 10 μM”. For the same molecule, the “Suppression of cell proliferation” value (cell proliferation) was “does not suppress”.
